These results are taken from US11667602B2, “Compounds and their use” (AstraZeneca AB, priority 2020, dated 2023).

Molecules are shown by their SMILES. Converted amounts (≈) assume the structure as drawn. A value given as a limit tells only on which side of the number the result lay.

A short description of data set [1]: Human Plasma Protein Binding (Test B). The class given is in vitro ADME. To be noted: fraction unbound (fu). The method in brief:
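Human plasma protein binding run per the published Wernevik et al. (2020) integrated DMPK panel protocol. Values are fraction unbound (fu, % free); repeat runs averaged arithmetically.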

The nature of data set [2]: Human Liver Microsomal Stability (Test C). In kind it is in vitro ADME. The conditions noted are these: human, liver microsomes. An outline of the steps: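 Human liver microsome incubation per the Wernevik et al. integrated DMPK panel protocol. Intrinsic clearance reported as CLint in μl/min/mg protein, averaged arithmetically over repeat runs.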
For orientation: Liver microsomes are vesicles of endoplasmic reticulum, rich in cytochrome P450 enzymes.

Data set [3] is described as follows: Human Hepatocyte Stability (Test D). In kind it is in vitro ADME. To be noted: human, cryopreserved pooled human hepatocytes (LiverPool 10-Donor), geometric mean if run multiple times. The method in brief: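 Pooled 10-donor cryopreserved human hepatocytes (≥80% viable) in L-15 medium at 0.25×10^6 cells per 0.25 mL well. Compound added from 100 μM acetonitrile solution; incubated at 37 °C with shaking, acetonitrile-quenched, LC-MS analysed. Clint (μL/min/10^6 cells) from ln % parent vs time slope; geometric mean of repeat runs.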

Data set [4] is described as follows: Rat Hepatocyte Stability (Test E). In kind it is in vitro ADME. The conditions noted are these: rat, hepatocytes, geometric mean if run multiple times. An outline of the steps: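 Run per the published AstraZeneca-type rat hepatocyte stability protocol (Wernevik et al. panel). Values are mean intrinsic clearance, Clint in μl/min/10^6 cells; geometric mean used for repeated runs.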

A short description of the next data set: Solubility (Test F). The class given is physicochemical. To be noted: arithmetic mean if run multiple times. On the procedure: The assay was conducted according to the Solubility Assay described in pages 164-167 of Wernevik, J. et al., “A Fully Integrated Assay Panel for Early Drug Metabolism and Pharmacokinetics Profiling”, Assay and Drug Development Technologies, 2020, 18(4), 157-179. Data are reported in Table 36 as solubility ([…]. Where the assay was run multiple times for the same compound, the arithmetic mean is reported.

Consider `COc1cc(Cl)c(O[C@H]2CC[C@@](C)(C(=O)O)CC2)cc1C(=O)N[C@@H]1[C@@H]2CC[C@@H](C2)[C@@H]1C(=O)NCC1(C)CCC1` [Example 410], for which the “Test B Human Plasma Protein Binding (% free)” value in data set [1] was 0.48 % free. In addition, the microsomal CLint in data set [2] was 20 µL/min/mg. In data set [3], this molecule came in with a hepatocyte CLint at 1 µM of 49 µL/min/1e6 cells. In data set [4], this molecule had a hepatocyte CLint of 21 µL/min/1e6 cells. For the same molecule, the solubility in “Solubility (Test F)” came to 280 µM (≈ 157 µg/mL).

Regarding `COc1cc(F)c(O[C@H]2CC[C@@](CC#N)(C(=O)O)CC2)cc1C(=O)N[C@@H]1[C@H]2CC[C@H](C2)[C@@H]1C(=O)NCC1(C)CCC1` [Example 424, (1S,4s)-1-(Cyanomethyl)-4-(2-fluoro-4-methoxy-5-(((1S,2R,3S,4R)-3-(((1-methylcyclobutyl)methyl)carbamoyl)bicyclo[2.2.1]heptan-2-yl)carbamoyl)phenoxy)cyclohexane-1-carboxylic acid], in data set [1], the “Test B Human Plasma Protein Binding (% free)” value was 6.7 % free. The microsomal CLint in data set [2] stood at 13 µL/min/mg. For the same molecule, the hepatocyte CLint at 1 µM in data set [3] was found to be 10 µL/min/1e6 cells. Besides, the hepatocyte CLint in data set [4] is 21 µL/min/1e6 cells. For the same molecule, the solubility in the data set “Solubility (Test F)” worked out at 990 µM (≈ 564 µg/mL).

For `COc1cc(C#N)c(O[C@H]2CC[C@@](C)(C(=O)O)CC2)cc1C(=O)N[C@H]1C(C(=O)NCC(C)(C)C)[C@@H]2CC[C@H]1C2` (stereo partly drawn) [Example 621, (1S,4s)-4-(2-cyano-4-methoxy-5-(((1S,2R,3S,4R)-3-(neopentylcarbamoyl)bicyclo[2.2.1]heptan-2-yl)carbamoyl)phenoxy)-1-methylcyclohexane-1-carboxylic acid], in data set [1], the “Test B Human Plasma Protein Binding (% free)” value was 12 % free. Further, the microsomal CLint in data set [2] was below 3 µL/min/mg. Also, in data set [3], the hepatocyte CLint at 1 µM is below 1.2 µL/min/1e6 cells. The same molecule yielded a hepatocyte CLint in data set [4] of 15 µL/min/1e6 cells. The same molecule came in with a solubility in “Solubility (Test F)” of 910 µM (≈ 491 µg/mL).

As for `COc1cc(C#N)c(O[C@H]2CC[C@@](C)(C(=O)O)CC2)cc1C(=O)N[C@@H]1[C@@H]2CC[C@@H](C2)[C@@H]1C(=O)NCC(C)(C)C` [Example 389], in data set [1], the “Test B Human Plasma Protein Binding (% free)” value amounted to 6 % free. The microsomal CLint in data set [2] is 5.8 µL/min/mg. In addition, the hepatocyte CLint at 1 µM in data set [3] worked out at 8 µL/min/1e6 cells. Further, the hepatocyte CLint in data set [4] came out at 11 µL/min/1e6 cells. Further, the concentration in solution in “Solubility (Test F)” (solubility) was 910 µM (≈ 491 µg/mL).

For `COc1cc(F)c(O[C@H]2CC[C@@](C)(C(=O)O)CC2)cc1C(=O)N[C@@H]1[C@H]2CC[C@H](C2)[C@@H]1C(=O)NCC1CCC1` [Example 2, (1S,4s)-4-(5-(((1S,2R,3S,4R)-3-((cyclobutylmethyl)carbamoyl)bicyclo[2.2.1]heptan-2-yl)carbamoyl)-2-fluoro-4-methoxyphenoxy)-1-methylcyclohexane-1-carboxylic acid], the “Test B Human Plasma Protein Binding (% free)” value in data set [1] is 1.9 % free. In data set [2], this molecule yielded a microsomal CLint of 14 µL/min/mg. In data set [3], this molecule yielded a hepatocyte CLint at 1 µM of 2 µL/min/1e6 cells. The same molecule registered a hepatocyte CLint in data set [4] of 27 µL/min/1e6 cells. The solubility in the data set “Solubility (Test F)” is above 1000 µM.

Consider `COc1cc(C#N)c(O[C@H]2CC[C@@](C)(C(=O)O)CC2)cc1C(=O)N[C@@H]1[C@@H]2CC[C@@H](C2)[C@@H]1C(=O)NCC1(C)CCC1` [Example 388], for which the “Test B Human Plasma Protein Binding (% free)” value in data set [1] is on record as 3.4 % free. In addition, the microsomal CLint in data set [2] was determined as 34 µL/min/mg. The molecule also had a hepatocyte CLint at 1 µM in data set [3] of 49 µL/min/1e6 cells. In addition, the hepatocyte CLint in data set [4] stood at 55 µL/min/1e6 cells. The solubility in the data set “Solubility (Test F)” was 680 µM (≈ 375 µg/mL).

For the molecule `CC1(CNC(=O)[C@H]2[C@@H]3CC[C@@H](C3)[C@H]2NC(=O)c2cc(O[C@H]3CC[C@@](C)(C(=O)O)CC3)c(F)cc2OC(F)F)CCC1` [Example 207, (1S,4s)-4-(4-(Difluoromethoxy)-2-fluoro-5-(((1S,2R,3S,4R)-3-(((1-methylcyclobutyl)methyl)carbamoyl)bicyclo[2.2.1]heptan-2-yl)carbamoyl)phenoxy)-1-methylcyclohexane-1-carboxylic acid], the “Test B Human Plasma Protein Binding (% free)” value in data set [1] is recorded as 3.5 % free. The molecule further came in with an intrinsic clearance (microsomal CLint) in data set [2] of 34 µL/min/mg. Besides, in data set [3], the hepatocyte CLint at 1 µM stood at 26 µL/min/1e6 cells. The molecule also registered a hepatocyte CLint in data set [4] of 10 µL/min/1e6 cells. The molecule also returned a solubility in “Solubility (Test F)” of 560 µM (≈ 325 µg/mL).

With `COc1cc(F)c(O[C@H]2CC[C@@](C)(C(=O)O)CC2)cc1C(=O)N[C@@H]1[C@H]2CC[C@H](C2)[C@@H]1C(=O)NCC(C)(C)C(F)(F)F` [Example 38, (1S,4s)-4-(2-Fluoro-4-methoxy-5-(((1S,2R,3S,4R)-3-((3,3,3-trifluoro-2,2-dimethylpropyl)carbamoyl)bicyclo[2.2.1]heptan-2-yl)carbamoyl)phenoxy)-1-methylcyclohexane-1-carboxylic acid], the “Test B Human Plasma Protein Binding (% free)” value in data set [1] is given as 5.6 % free. Also, the microsomal CLint in data set [2] is 13 µL/min/mg. This molecule had a hepatocyte CLint at 1 µM in data set [3] of 4.2 µL/min/1e6 cells. In data set [4], this molecule had a hepatocyte CLint of 9 µL/min/1e6 cells. Further, in the data set “Solubility (Test F)”, the concentration in solution (solubility) was 38 µM (≈ 22.3 µg/mL).

Turning to `COc1cc(C#N)c(O[C@H]2CC[C@@](C)(C(=O)O)CC2)cc1C(=O)N[C@@H]1[C@H]2CC[C@H](C2)[C@@H]1C(=O)NC12CC(F)(C1)C2` [Example 622], in data set [1], the “Test B Human Plasma Protein Binding (% free)” value is reported as 17 % free. The molecule also registered an intrinsic metabolic clearance (microsomal CLint) in data set [2] below 5.1 µL/min/mg. Moreover, in data set [3], the intrinsic metabolic clearance (hepatocyte CLint) at 1 µM is 1.7 µL/min/1e6 cells. Also, the hepatocyte CLint in data set [4] came to 11 µL/min/1e6 cells. For the same molecule, in the data set “Solubility (Test F)”, the solubility was above 860 µM.

`CC1(CNC(=O)[C@H]2[C@@H]3CC[C@@H](C3)[C@H]2NC(=O)c2cc(O[C@H]3CC[C@@](C)(C(=O)O)CC3)c(F)cc2F)CCC1` [Example 393, (1S,4s)-4-(2,4-Difluoro-5-(((1S,2R,3S,4R)-3-(((1-methylcyclobutyl)methyl)carbamoyl)bicyclo[2.2.1]heptan-2-yl)carbamoyl)phenoxy)-1-methylcyclohexane-1-carboxylic acid]: the “Test B Human Plasma Protein Binding (% free)” value in data set [1] stood at 1.4 % free. In data set [2], this molecule registered a microsomal CLint of 37 µL/min/mg. Besides, the hepatocyte CLint at 1 µM in data set [3] is 6.7 µL/min/1e6 cells. This molecule also had a hepatocyte CLint in data set [4] of 12 µL/min/1e6 cells. Moreover, the solubility in “Solubility (Test F)” turned out to be 53 µM (≈ 28.2 µg/mL).

Take `COc1cc(C)c(O[C@H]2CC[C@@](C)(C(=O)O)CC2)cc1C(=O)N[C@@H]1[C@H]2CC[C@H](C2)[C@@H]1C(=O)NCC1(C)CCC1` [Example 375]: the “Test B Human Plasma Protein Binding (% free)” value in data set [1] amounted to 4.4 % free. The molecule also returned a microsomal CLint in data set [2] of 38 µL/min/mg. Further, the hepatocyte CLint at 1 µM in data set [3] worked out at 3.1 µL/min/1e6 cells. Further, in data set [4], the hepatocyte CLint was 32 µL/min/1e6 cells. In “Solubility (Test F)”, this molecule came in with a solubility of 240 µM (≈ 130 µg/mL).

As for `COc1cc(C(F)F)c(O[C@H]2CC[C@@](C)(C(=O)O)CC2)cc1C(=O)N[C@@H]1[C@H]2CC[C@H](C2)[C@@H]1C(=O)NCC1(C)CCC1` [Example 373], in data set [1], the “Test B Human Plasma Protein Binding (% free)” value was 3.9 % free. In data set [2], this molecule gave a microsomal CLint of 23 µL/min/mg. In data set [3], this molecule showed a hepatocyte CLint at 1 µM of 5.1 µL/min/1e6 cells. For the same molecule, in data set [4], the hepatocyte CLint was 16 µL/min/1e6 cells. For the same molecule, the solubility in “Solubility (Test F)” is 1000 µM (≈ 577 µg/mL).

Turning to `COc1cc(F)c(O[C@H]2CC[C@@](CO)(C(=O)O)CC2)cc1C(=O)N[C@@H]1[C@H]2CC[C@H](C2)[C@@H]1C(=O)NCC1(C)CCC1` [Example 364], the “Test B Human Plasma Protein Binding (% free)” value in data set [1] was found to be 11 % free. Also, in data set [2], the intrinsic clearance (microsomal CLint) was below 5.1 µL/min/mg. For the same molecule, the hepatocyte CLint at 1 µM in data set [3] was determined as 6.2 µL/min/1e6 cells. The hepatocyte CLint in data set [4] was 19 µL/min/1e6 cells. This molecule also displayed a solubility in the data set “Solubility (Test F)” above 1000 µM.

Regarding `COc1cc(Cl)c(O[C@H]2CC[C@@](C)(C(=O)O)CC2)cc1C(=O)N[C@@H]1[C@H]2CC[C@H](C2)[C@@H]1C(=O)NCC1(C)CCC1` [Example 392, (1S,4s)-4-(2-Chloro-4-methoxy-5-(((1S,2R,3S,4R)-3-(((1-methylcyclobutyl)methyl)carbamoyl)bicyclo[2.2.1]heptan-2-yl)carbamoyl)phenoxy)-1-methylcyclohexane-1-carboxylic acid], the “Test B Human Plasma Protein Binding (% free)” value in data set [1] is recorded as 2.7 % free. In data set [2], the microsomal CLint stood at 36 µL/min/mg. The same molecule had a hepatocyte CLint at 1 µM in data set [3] of 4.7 µL/min/1e6 cells. In data set [4], the intrinsic clearance (hepatocyte CLint) was 15 µL/min/1e6 cells. This molecule also had a solubility in “Solubility (Test F)” of 470 µM (≈ 264 µg/mL).

Consider `CCc1cc(OC)c(C(=O)N[C@@H]2[C@H]3CC[C@H](C3)[C@@H]2C(=O)NCC2(C)CCC2)cc1O[C@H]1CC[C@@](C)(C(=O)O)CC1` [Example 376], for which, in data set [1], the “Test B Human Plasma Protein Binding (% free)” value is reported as 2.5 % free. The same molecule returned a microsomal CLint in data set [2] of 44 µL/min/mg. The molecule further showed a hepatocyte CLint at 1 µM in data set [3] of 3.9 µL/min/1e6 cells. For the same molecule, the hepatocyte CLint in data set [4] amounted to 28 µL/min/1e6 cells. Further, the concentration in solution in “Solubility (Test F)” (solubility) was 300 µM (≈ 166 µg/mL).

One may read the microsomal CLint as a measure of how fast metabolising enzymes remove a compound, apart from limits set by blood flow. Read a high microsomal CLint as rapid turnover. In general, hepatocyte CLint refers to the rate of metabolic loss divided by the concentration. A lower hepatocyte CLint goes with slow turnover. The solubility is how much of the substance goes into solution per volume. Lower therefore signals little dissolved substance.
